Experimental data published in US20150057246A1, “SILYL-CONTAINING HETEROCYCLIC COMPOUNDS AND METHODS OF USE THEREOF FOR THE TREATMENT OF VIRAL DISEASES” (priority 2012, published 2015).
Read-outs that look alike come from different tables or passages of the source.

Legend:
HCV 1a replicon = assay: Cell-based HCV replicon assay (TaqMan), genotype 1a replicon; settings: HCV genotype 1a replicon cells, replicon RNA by real time PCR, day 3, EC90 = concentration for ΔCT=3.2 over baseline
Outline: (§1)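 Replicon cells seeded at 5000 cells/well with compound as 10 serial 2-fold dilutions (top 250 μM to 1 μM), 0.5% DMSO, 5% FBS, 3 days. NS5B replicon RNA quantified by multiplex TaqMan RT-PCR against GAPDH. EC50 = concentration giving ΔCT=1 over baseline; EC90 = ΔCT=3.2, from sigmoid fit.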

HCV 2b replicon = assay: Cell-based HCV replicon assay (TaqMan), genotype 2b replicon; settings: Hepatitis C virus, 72 h, read-out: 2b EC90, HCV genotype 2b replicon cells, replicon RNA by real time PCR, day 3; EC90 = concentration for ΔCT=3.2 over baseline
Outline: as §1

HCV 1a Y93H replicon = assay: Cell-based HCV replicon assay (TaqMan), 1a Y93H mutant replicon; settings: EC90 = concentration for ΔCT=3.2 over baseline
Outline: as §1

HCV 1b replicon = assay: Cell-based HCV replicon assay (TaqMan), genotype 1b replicon; settings: HCV genotype 1b replicon cells, replicon RNA by real time PCR, day 3, EC90 = concentration for ΔCT=3.2 over baseline
Method: Measurement of inhibition by compounds of the present invention was performed using the HCV replicon system. Several different replicons encoding different HCV genotypes or mutations were used. In addition, potency measurements were made using different formats of the replicon assay, including different ways of measurements and different plating formats. See Jan M. Vrolijk et al., A replicons-based bioassay for the measurement of interferons in patients with chronic hepatitis C, 110 J. VIROLOGICAL METHODS 201 (2003); Steven S. Carroll et al., Inhibition of Hepatitis C Virus RNA Replication by 2′-Modified Nucleoside Analogs, 278(14) J. BIOLOGICAL CHEMISTRY 11979 (2003). However, the underlying principles are common to all of these determinations, and are outlined below.
TaqMan®-Based Assay Protocol:
Compounds of the present invention were assayed for cell-based anti-HCV activity using the following protocol. Replicon cells were seeded at 5000 cells/well in 96-well collagen I-coated Nunc plates in the presence of the test compound. Various concentrations of test compound, typically in 10 serial 2-fold dilutions, were added to the assay mixture, with the starting concentration ranging from 250 μM to 1 μM. The final concentration of DMSO was 0.5%, fetal bovine serum was 5%, in the assay media. Cells were harvested on day 3 by the addition of 1× cell lysis buffer (Ambion cat #8721). The replicon RNA level was measured using real time PCR (TaqMan® assay). The amplicon was located in 5B. The PCR primers were: 5B.2F, ATGGACAGGCGCCCTGA (SEQ. ID NO. 1); 5B.2R, […] (SEQ. ID NO. 2); the probe sequence was FAM-labeled CACGCCATGCGCTGCGG (SEQ. ID NO. 3). GAPDH RNA was used as endogenous control and was amplified in the same reaction as NS5B (multiplex PCR) using primers and VIC-labeled probe recommended by the manufacturer (PE Applied Biosystem). The real-time […] reactions were run on ABI PRISM 7900HT Sequence Detection System using the following program: 48° C. for 30 minutes, 95° C. for 10 minutes, 40 cycles of 95° C. for 15 sec, 60° C. for 1 minute. The ΔCT values (CT5B-CTGAPDH) were plotted against the concentration of test compound and fitted to the sigmoid dose-response model using XLfit4 (MDL). EC50 was defined as the concentration of inhibitor necessary to achieve ΔCT=1 over the projected baseline; EC90 the concentration necessary to achieve ΔCT=3.2 over the baseline. Alternatively, to quantitate the absolute amount of replicon RNA, a standard curve was established by including serially diluted T7 transcripts of replicon RNA in the Taqman assay. All TaqMan® reagents were from PE Applied Biosystems. Such an assay procedure was described in detail in e.g. Malcolm et al., Antimicrobial Agents and Chemotherapy 50: 1013-1020 (2006).
HCV replicon EC50 assay data for various replicons and mutants was calculated for selected compounds of the present invention using this method and is provided in the tables above herein.

[1] = Hepatitis C virus, 72 h, read-out: 1a Y93H EC90, HCV 1a Y93H mutant replicon cells, replicon RNA by real time PCR, day 3

Structure (SMILES)	EC90 (HCV 1a replicon; Hepatitis C virus, 72 h) [nM]	EC90 (HCV 2b replicon) [nM]	EC90 (HCV 1a Y93H replicon; [1]) [nM]	EC90 (HCV 1b replicon; Hepatitis C virus, 72 h) [nM]	EC90 (HCV 1a replicon) [nM]	EC90 (HCV 1a Y93H replicon; read-out: 1a Y93H EC90, HCV 1a Y93H mutant replicon cells, replicon RNA by real time PCR, day 3) [nM]	EC90 (HCV 1b replicon) [nM]
COC(=O)N[C@H](C(=O)N1CCC[C@H]1c1ncc(-c2ccc3cc(-c4ccc5c(ccc6nc([C@@H]7C[Si](C)(C)CN7C(=O)[C@@H](NC(=O)OC)C(C)C)[nH]c65)c4)ccc3c2)[nH]1)C(C)C [Compound 112]	0.046	> 100	> 100	> 1			
COC(=O)N[C@@H](CC1CC1)C(=O)N1C[Si](C)(C)C[C@H]1c1nc2ccc3cc(-c4ccc(-c5cnc([C@@H]6CCCN6C(=O)[C@@H](NC(=O)OC)C(C)C)[nH]5)cc4)ccc3c2[nH]1 [Compound 77]	0.56	221	> 1000	0.03			
COC(=O)N[C@H](C(=O)N1C[Si](C)(C)C[C@H]1c1nc2ccc3cc(-c4ccc(-c5cnc([C@@H]6C[C@H]7C[C@H]7N6C(=O)[C@@H](NC(=O)OC)C(C)C)[nH]5)cc4)ccc3c2[nH]1)C(C)C [Compound 105]		301			0.26	605	0.02
COC(=O)N[C@@H](C(=O)N1CCC[C@@H]1c1ncc(-c2ccc3cc(-c4ccc5c(ccc6nc([C@H]7C[Si](C)(C)CN7C(=O)OC(C)(C)C)[nH]c65)c4)ccc3c2)[nH]1)C(C)C [Compound 116]	> 1	> 100	> 100	> 1			
CC[C@H](C)[C@H](NC(=O)OC)C(=O)N1CCC[C@H]1c1ncc(-c2ccc(-c3ccc4c(ccc5nc([C@@H]6C[Si](C)(C)CN6C(=O)[C@@H](NC(=O)OC)[C@@H](C)CC)[nH]c54)c3)cc2)[nH]1 [Compound 22]	0.35	250	746	0.03			
COC(=O)N[C@@H](CC(C)(C)C)C(=O)N1C[Si](C)(C)C[C@H]1c1nc2ccc3cc(-c4ccc(-c5cnc([C@@H]6CCCN6C(=O)[C@@H](NC(=O)OC)C(C)C)[nH]5)cc4)ccc3c2[nH]1 [Compound 72]	0.18	114	130	0.02			
COC(=O)N[C@@H](CN(C)C)C(=O)N1C[Si](C)(C)C[C@H]1c1nc2ccc3cc(-c4ccc(-c5cnc([C@@H]6CCCN6C(=O)[C@@H](NC(=O)OC)C(C)C)[nH]5)cc4)ccc3c2[nH]1 [Compound 73]	0.19	110	> 1000	0.05			
COC(=O)N[C@H](C(=O)N1CCC[C@H]1c1ncc(-c2ccc(-c3ccc4c(ccc5nc([C@@H]6C[Si](C)(C)CN6C(=O)C6(NC(=O)OC)CCC6)[nH]c54)c3)cc2)[nH]1)C(C)C [Compound 71]	10	205	288	0.03			
COC(=O)N[C@H](C(=O)N1CCC[C@H]1c1ncc(-c2ccc(-c3ccc4c(ccc5nc([C@@H]6C[Si](C)(C)CN6C(=O)[C@@H](NC(=O)OC)C6CCOCC6)[nH]c54)c3)cc2)[nH]1)C1CCOCC1 [Compound 18]	0.023	2.8	> 100	0.014			
COC(=O)N[C@H](C(=O)N1C[Si](C)(C)C[C@H]1c1nc(Cl)c(-c2ccc(-c3ccc4c(ccc5nc([C@@H]6CCCN6C(=O)[C@@H](NC(=O)OC)C(C)C)[nH]c54)c3)cc2)[nH]1)C(C)C [Compound 96]	0.24	263	368	0.69			
